These results are taken from ChEMBL document CHEMBL1201862, “PubChem BioAssay data set” (2004).

Test systems include M19-MEL; LXFL 529; SNB-78; DMS-273; DMS-114; DLD-1; XF498; HOP-18.
Common to all, as to assay: NCI-60 cell line screen, 48 h

The structures appear in SMILES notation.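 These data come from cells grown in 96-well plates and exposed to compound for 48 hours at five concentrations. GI50 = concentration required for 50% inhibition of growth.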 Active and inactive are the calls of the source. Cut-off read from the data, not from the text of the source: active = GI50 up to about 1.1 µM and inactive = higher. Starred links: 1 amine or outer side, 2 acyl side, 3 side chain; linkers in the order of their positions; H or OH if unused. Positions of bridges follow the written chain, without caps; N, C: chain ends. Non-standard residues stand in square brackets, D forms with d. Residues, ends and D or L forms follow the SMILES beside them. Chains are numbered I, II in the order given. Actinocin(1to9) = Cc1c2oc3c(C)ccc(C(=O)[*:2])c3nc-2c(C(=O)[*:1])c(N)c1=O; aThr = C[C@H](O)[C@H](N)C(=O)O; NMeV = CN[C@H](C(=O)O)C(C)C; Sar = CNCC(=O)O Some results are limits rather than exact numbers.

On to `c1ccc(OCc2nnc3n2N=C(c2ccccc2)CS3)cc1`, for which the GI50 in the assay on M19-MEL, in the assay on LXFL 529, in the assay with SNB-78, in the assay with DMS-273, in the assay on DMS-114 and in the assay with DLD-1 was > 100 µM (inactive) in each case. The GI50 in the assay with XF498 is > 100 µM (inactive).

Regarding `Cc1c2oc3c(C)ccc(C(=O)N[C@@H]4C(=O)N[C@H](C(C)C)C(=O)N5CCC[C@H]5C(=O)N(C)CC(=O)N(C)[C@@H](C(C)C)C(=O)O[C@H]4C)c3nc-2c(C(=O)N[C@@H]2C(=O)N[C@H](C(C)C)C(=O)N3CCC[C@H]3C(=O)N(C)CC(=O)N(C)[C@@H](C(C)C)C(=O)O[C@H]2C)c(N)c1=O` (I: [aThr][dV]P[Sar][NMeV] / II: [aThr][dV]P[Sar][NMeV]; ester I:1-I:C, II:1-II:C; linker I:N-II:N via Actinocin(1to9)), the GI50 in the assay with M19-MEL was 0.00155 µM (active); in the assay on SNB-78, 0.0027 µM (active); with DMS-273, 0.00031 µM (active); with HOP-18, 0.00611 µM (active); in the assay on DMS-114, 0.00295 µM (active); in the assay with DLD-1 it was 0.00384 µM (active). For the same compound, the GI50 in the assay with XF498 is 0.000897 µM (active).

For the compound `N#CC1(C#N)C(c2ccc(C3C(C#N)(C#N)C3(C#N)C#N)cc2)C1(C#N)C#N`, the GI50 with M19-MEL, in the assay with LXFL 529, in the assay with DMS-273, with HOP-18, in the assay with DMS-114 and in the assay with DLD-1 was > 100 µM (inactive) in each case.

For the compound `CC1=C2[C@H](c3ccccc3)C3C=CC2(c2ccccc23)N(C(=O)C(c2ccccc2)c2ccccc2)C1=O` (stereo not given in full), the GI50 in the assay on M19-MEL, with LXFL 529, in the assay on DMS-273, in the assay with HOP-18, with DMS-114 and in the assay on DLD-1 was > 100 µM (inactive) each time. Moreover, the GI50 in the assay on XF498 was > 100 µM (inactive).

For `COc1ccc2c(c1)[n+]([O-])c(-c1ccc(C)cc1)c(N)[n+]2[O-]`, the GI50 with M19-MEL is 51.1 µM (inactive); in the assay with LXFL 529, 59.6 µM (inactive); in the assay with SNB-78 it was 70.5 µM (inactive); in the assay on DMS-273, 37.7 µM (inactive); in the assay with HOP-18 it was > 100 µM (inactive); with DMS-114, 24.9 µM (inactive). For the same compound, the GI50 in the assay with DLD-1 was > 100 µM (inactive).

On to `O=C1OC(c2ccccc2)=N/C1=C\c1c(O)cc(O)cc1O`, for which the GI50 was 83.6 µM (inactive) in the assay with M19-MEL; 41 µM (inactive) in the assay on LXFL 529; > 100 µM (inactive) in the assay with SNB-78; 94.2 µM (inactive) in the assay on DMS-273; > 100 µM (inactive) in the assay on HOP-18; > 100 µM (inactive) with DMS-114.

`COc1ccc(-c2nc(N)n(C)c2SSc2c(-c3ccc(OC)cc3)nc(N)n2C)cc1`: the GI50 was 2.29 µM (inactive) with M19-MEL; 1.67 µM (inactive) with LXFL 529; 3.88 µM (inactive) in the assay with DMS-273; 5.57 µM (inactive) with HOP-18; 2.26 µM (inactive) with DMS-114; 4.3 µM (inactive) with DLD-1. For the same compound, in the assay with XF498, the GI50 was 2.13 µM (inactive).

With `CC(C)CCS(=O)(=O)OCCCCOS(=O)(=O)CCC(C)C`, the GI50 in the assay on M19-MEL, with LXFL 529, with SNB-78, with DMS-273, with DMS-114 and in the assay on DLD-1 was > 100 µM (inactive) in each case.

As for `NNC(=O)/C(NC(=O)c1ccccc1)=C(\N)c1ccc(Cl)cc1`, the GI50 in the assay on M19-MEL, in the assay with LXFL 529, in the assay on SNB-78, in the assay with DMS-273, with HOP-18 and in the assay on DMS-114 was > 100 µM (inactive) throughout. Besides, the GI50 in the assay on DLD-1 is > 100 µM (inactive).
